Drawing on patent US8906952B2, “Indole derivative or pharmaceutically acceptable salt thereof, preparation method thereof, and pharmaceutical composition for preventing or treating metabolic diseases containing same as active ingredient” (Korea Research Institute of Bioscience and Biotechnology, priority 2011, dated 2014), this text covers IC50, activity and inhibition for 9 compounds.

The IC50 is the concentration at which inhibition is half-maximal. The inhibition is the share of the control response that was lost under treatment.

The structures appear in SMILES notation.

Assay [1] has as its target T1, human DGAT1 (Homo sapiens, UniProt O75907).
T1 construct: made in house; host or cells: sf9 insect cells
T1 sequence (O75907 1-488): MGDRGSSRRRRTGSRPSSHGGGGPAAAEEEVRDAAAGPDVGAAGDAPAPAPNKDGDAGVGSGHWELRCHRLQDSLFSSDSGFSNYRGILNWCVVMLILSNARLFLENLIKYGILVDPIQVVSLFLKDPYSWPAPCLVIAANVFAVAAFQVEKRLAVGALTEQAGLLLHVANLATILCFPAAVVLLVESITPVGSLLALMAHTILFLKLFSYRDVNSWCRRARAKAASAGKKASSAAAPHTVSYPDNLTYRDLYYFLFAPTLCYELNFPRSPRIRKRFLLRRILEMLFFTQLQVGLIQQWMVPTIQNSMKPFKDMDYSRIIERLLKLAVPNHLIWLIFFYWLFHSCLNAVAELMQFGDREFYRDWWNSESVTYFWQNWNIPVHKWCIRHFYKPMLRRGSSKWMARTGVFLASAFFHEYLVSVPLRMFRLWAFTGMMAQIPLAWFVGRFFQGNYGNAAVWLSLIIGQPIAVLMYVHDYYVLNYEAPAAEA
Kind of assay: DGAT enzyme inhibition test, hDGAT1 enzyme from sf9 insect cells. In kind it is biochemical. The settings on record: enzyme from sf9 cells overexpressing hDGAT1; read-out: hDGAT-1 (sf9) IC50. The procedure, abridged: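 Microsomes (100–200 μg) from sf9 cells overexpressing the human enzyme were incubated 10 min at 25 °C with compound in 175 mM Tris-HCl pH 8.0, 100 mM MgCl2, BSA, 30 μM [14C]palmitoyl-CoA and 200 μM 1,2-dioleoylglycerol. Extracted [14C]triacylglycerol was counted by LSC. Inhibition was calculated from treated, untreated and no-enzyme counts.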

For assay [2], the system named is HepG2 cells. Kind of assay: DGAT inhibitory effect in HepG2 cells (triglyceride production from [14C]glycerol). The format is cell-based. The settings on record: Homo sapiens; for activity at 10 µM: HepG2, 6 h, DMSO control = 100, read-out: Triglyceride production rate (%)/HepG2 cells at 10 μM; for inhibition at 10 µM: HepG2, 10 μM, read-out: biosynthesis inhibition rate of triglyceride. The procedure, abridged: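 HepG2 cells, switched to FBS-free DMEM, were treated with compounds at 10 μM and given 0.2 mCi [14C]glycerol for 6 hr. Lipids were hexane:isopropanol-extracted, triglyceride separated by TLC and quantified by radio-imaging, normalised to cell protein. Production expressed relative to DMSO control set at 100.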

As for `CC(C)N(NC(=O)c1ccccc1)C(=O)/C=C/c1cn(C(=O)C(C)(C)C)c2ccccc12` [Example 31, (E)-N′-isopropyl-N′-(3-(1-pivaloyl-1H-indol-3-yl)acryloyl)benzohydrazide], the 50% inhibitory concentration (IC50) in assay [1] was 9.3 µM. Further, the activity at 10 µM in assay [2] worked out at 93.3%.

On to `CC(C)=CCn1cc(/C=C/C(=O)N(NC(=O)c2ccccc2)C(C)C)c2ccccc21` [Example 27, (E)-N′-isopropyl-N′-(3-(1-(3-methylbut-2-enyl)-1H-indol-3-yl)acryloyl)benzohydrazide], for which the IC50 in assay [1] worked out at 11.8 µM. The activity at 10 µM in assay [2] came out at 58.5%.

Regarding `CC(C)N(NC(=O)c1ccccc1)C(=O)/C=C/c1cn(C(=O)c2ccccc2)c2ccccc12` [Example 32, (E)-N′-(3-(1-benzoyl-1H-indol-3-yl)acryloyl)-N′-isopropylbenzohydrazide], the IC50 in assay [1] is 5.7 µM. Also, the activity at 10 µM in assay [2] was 91.4%.

For the compound `CC(C)N(NC(=O)c1ccccc1)C(=O)/C=C/c1c[nH]c2ccccc12` [Example 22, (E)-N′-(3-(1H-indol-3-yl)acryloyl)-N′-isopropylbenzohydrazide], in assay [1], the IC50 was more than 100 µM. Besides, the activity at 10 µM in assay [2] came out at 116%.

With `CC(C)N(NC(=O)c1cccc(OCC(=O)O)c1)C(=O)/C=C/c1cn(C(=O)OC(C)(C)C)c2ccccc12` [Example 19, (E)-2-(3-(2-(3-(1-(tert-butoxycarbonyl)-1H-indol-3-yl)acryloyl)-2-isopropylhydrazinecarbonyl)phenoxy)acetic acid], in assay [1], the IC50 is more than 100 µM. In addition, in assay [2], the activity at 10 µM turned out to be 103%.

As for `CC(C)N(NC(=O)c1ccc(OCCN2CCOCC2)cc1)C(=O)/C=C/c1cn(C(=O)OC(C)(C)C)c2ccccc12` [Example 9, (E)-tert-butyl 3-(3-(1-isopropyl-2-(4-(2-morpholinoethoxy)benzoyl)hydrazinyl)-3-oxoprop-1-enyl)-1H-indole-1-carboxylate], the IC50 in assay [1] is more than 100 µM. Moreover, in assay [2], the activity at 10 µM came out at 83.8%.

As for `CC(C)N(NC(=O)c1ccccc1)C(=O)CCc1cn(Cc2ccccc2)c2ccccc12` [Example 21, N′-(3-(1-benzyl-1H-indol-3-yl)propanoyl)-N′-isopropylbenzohydrazide], the IC50 in assay [1] was more than 100 µM. In addition, the activity at 10 µM in assay [2] is 103%.

For the compound `CC(C)(C)OC(=O)n1cc(/C=C/C(=O)NNC(=O)c2ccccc2)c2ccccc21` [Example 16, (E)-tert-butyl 3-(3-(2-benzoylhydrazinyl)-3-oxoprop-1-enyl)-1H-indole-1-carboxylate], the half-inhibitory concentration (IC50) in assay [1] was more than 100 µM. Besides, in assay [2], the activity at 10 µM amounted to 61.7% and the inhibition at 10 µM lay within 30 to 40%.

On to `CC(C)N(NC(=O)c1ccccc1)C(=O)/C=C/c1cn(C2CC2)c2ccccc12` [Example 29, (E)-N′-(3-(1-cyclopropyl-1H-indol-3-yl)acryloyl)-N′-isopropylbenzohydrazide], for which the IC50 in assay [1] was found to be 24.6 µM. Moreover, in assay [2], the activity at 10 µM came out at 59.6% and the inhibition at 10 µM was 30 to 40%.
